Assay results taken from article PMC9855884, “Glycosylated Lipopeptides—Synthesis and Evaluation of Antimicrobial Activity and Cytotoxicity” (Biomolecules, 2023).
Values after ≈ are worked out from the molar mass of the structure shown. Where a SMILES comes first, the peptide text is derived from it. The star is where a group is joined. βGlcNAc = CC(=O)N[C@@H]1[C@@H](O)[C@H](O)[C@@H](CO)O[C@H]1*; Stearoyl = CCCCCCCCCCCCCCCCCC(=O)*; Palmitoyl = CCCCCCCCCCCCCCCC(=O)*

Key:
P. aeruginosa ATCC 9027 = type: cell-based, Pseudomonas aeruginosa; conditions: ATCC 9027, 18 h
Procedure: (§1) The Acinetobacter baumannii ATCC BAA-1605, Enterococcus faecium ATCC 700221, Klebsiella aerogenes ATCC 13048, Klebsiella pneumoniae ATCC 700603, Pseudomonas aeruginosa ATCC 9027, Staphylococcus aureus ATCC 33591, Candida glabrata ATCC 15126, strains were acquired from the American Type Culture Collection (ATCC). All the strains were stored at −80 °C in Roti-Store cryo vials and were transferred into fresh Mueller–Hinton broth (MHB, Becton Dickinson, Warsaw, Poland) for bacteria or RPMI-1640 (Sigma-Aldrich, Steinheim, Germany) for fungi before the tests and incubated for 24 h at 37 °C. Then, the cultures were seeded on the Mueller–Hinton agar (BioMaxima, Lublin, Poland) or Sabouraud dextrose agar (SDA, BioMaxima, Lublin, Poland) plates, respectively, and incubated as just mentioned. These agar cultures were used for further microbiological assays. Cell densities for all assays were adjusted spectrophotometrically (Multiskan GO Microplate Spectrophotometer, Thermo Fisher Scientific, Vantaa, Finland) at 600 and 530 nm for bacteria and fungi, respectively.
(§2) The MICs were determined using a broth microdilution method according to the Clinical and Laboratory Standard Institute guidelines. For this purpose, initial inoculums of bacteria (5 × 10^5 CFU/mL) in MHB and yeasts (2 × 10^3 CFU/mL) in RPMI-1640 with 2% D-glucose were exposed to the ranging concentration of lipopeptides (1–512 μg/mL) and incubated at 37 °C for 18 h and 24 h, respectively. The experiments were conducted on 96-well microtiter polystyrene plates (Kartell, Italy). The growth was assessed visually after incubation and the MIC was assumed as the lowest peptide concentration at which a noticeable growth of microorganisms was inhibited. All experiments were conducted in triplicate.

A. baumannii biofilm = type: cell-based, Acinetobacter baumannii; conditions: 24 h
Procedure: as §1
(§3) The MBECs were determined as previously described, using 96-well polystyrene flat-bottom plates. For this purpose, 24 h cultures of microorganisms were diluted to obtain a final density of 5.0 × 10^5 CFU/mL and 2.0 × 10^5 CFU/mL of bacteria and fungi, respectively. Microorganisms were diluted in MHB or RPMI-1640 with 2% D-glucose (bacteria and fungi, respectively). Briefly, 100 µL of cell suspension was added into the test plates. After 24 h of incubation at 37 °C, the wells were rinsed three times with a phosphate buffer saline (PBS, pH 7.4) to remove non-adherent cells. Subsequently, 100 μL of the test compounds over the concentration range (1–512 μg/mL) were added to each well. After 24 h of incubation at 37 °C, 20 μL of a cell viability reagent was added (resazurin, 4 g/L; Sigma Aldrich, St. Louis, MO, USA). The MBEC was read after 1 h. The determined values were recorded as the lowest concentration at which the reduction of resazurin (from blue to pink) […]. All experiments were conducted in triplicate.

K. pneumoniae biofilm = type: cell-based, Klebsiella pneumoniae; conditions: 24 h
Procedure: as §1, §3

C. glabrata biofilm = type: cell-based, Candida glabrata; conditions: 24 h
Procedure: as §1, §3

[1] = tested on: human red blood cells (RBCs); test: Hemolysis assay; type: cell-based; conditions: human RBCs 4% (v/v) in PBS, 60 min, 37 °C, absorbance 540 nm, 1–512 µg/mL; triplicate
Procedure: The hemolysis assay was conducted using a procedure described previously. For this purpose, fresh human red blood cells (RBCs) with EDTA anticoagulant were washed three times with phosphate-buffer saline (PBS) using centrifugation at 800× g for 10 min and resuspended in PBS. Then, the stock solution of RBCs was added to serial dilution of peptides on 96-well polystyrene plates to reach a final volume of 100 µL with 4% concentration of erythrocytes (v/v) over the concentration range of 1–512 µg/mL of the tested compounds. The control wells for the 0% and 100% hemolysis consisted of RBCs suspended in PBS and 1% of Triton X–100, respectively. Subsequently, the plates were incubated for 60 min at 37 °C and then centrifuged at 800× g for 10 min at 4 °C (Sorvall ST 16R Centrifuge, Thermo Scientific, Osterode am Harz, Germany). After centrifugation, the supernatant was carefully […] to new microtiter plates and the release of hemoglobin was monitored through absorbance measurements at 540 nm (Multiskan™ GO Microplate Spectrophotometer, Thermo Scientific). All experiments were conducted in triplicate.
The lipopeptides were tested against human erythrocytes in order to evaluate their hemolytic activity. Moreover, selectivity indexes (SI) were calculated by dividing the HC50 by MIC. […] In some cases, glycosylation led to suppressed toxicity, e.g., a comparison of C14 peptides analogs: 1–3 and 10–12. On the other hand, an increase in toxicity of C18 analogs (7–9 vs. 16–18) was found for glycosylated USCLs. For this reason, SI was calculated to provide a correlation between antimicrobial activity and toxicity. […] Among gUSCLs: 10 and 11 with C14 fatty acid and 16–18 should be highlighted owing to their high selectivity against E. fecium and C. glabrata.

S. aureus ATCC 33591 = type: cell-based, Staphylococcus aureus; conditions: ATCC 33591, 18 h
Procedure: as §1, §2

P. aeruginosa biofilm = type: cell-based, Pseudomonas aeruginosa; conditions: 24 h
Procedure: as §1, §3

S. aureus biofilm = type: cell-based, Staphylococcus aureus; conditions: 24 h
Procedure: as §1, §3

C. glabrata ATCC 15126 = type: cell-based, Candida glabrata; conditions: ATCC 15126, 24 h
Procedure: as §1, §2

E. faecium ATCC 700221 = type: cell-based, Enterococcus faecium; conditions: ATCC 700221, 18 h
Procedure: as §1, §2

MIC (P. aeruginosa ATCC 9027) [µg/mL]	MIC (S. aureus ATCC 33591) [µg/mL]	MIC (C. glabrata ATCC 15126) [µg/mL]	MIC (E. faecium ATCC 700221) [µg/mL]	Structure (SMILES)	MBEC (A. baumannii biofilm) [µg/mL]	MBEC (K. pneumoniae biofilm) [µg/mL]	MBEC (C. glabrata biofilm) [µg/mL]	HC50 (hemolytic activity) [1] [µg/mL]	MBEC (P. aeruginosa biofilm) [µg/mL]	MBEC (S. aureus biofilm) [µg/mL]
64 (≈ 93.7 µM)	16 (≈ 23.4 µM)	4 (≈ 5.86 µM)	8 (≈ 11.7 µM)	CCCCCCCCCCCCCCCCCC(=O)N[C@@H](CO)C(=O)N[C@@H](CCCNC(=N)N)C(=O)N[C@@H](CCCNC(=N)N)C(N)=O [Peptide 7, C18-SRR-NH2] (Stearoyl-Ser-Arg-Arg-NH2)	512	512	128	82.31 ± 1.36	512	512
64 (≈ 93.7 µM)	16 (≈ 23.4 µM)	4 (≈ 5.86 µM)	8 (≈ 11.7 µM)	CCCCCCCCCCCCCCCCCC(=O)N[C@@H](CCCNC(=N)N)C(=O)N[C@@H](CO)C(=O)N[C@@H](CCCNC(=N)N)C(N)=O [Peptide 8, C18-RSR-NH2] (Stearoyl-Arg-Ser-Arg-NH2)	512	512	128	335.12 ± 73.39	>512	256
64 (≈ 93.7 µM)	8 (≈ 11.7 µM)	4 (≈ 5.86 µM)	8 (≈ 11.7 µM)	CCCCCCCCCCCCCCCCCC(=O)N[C@@H](CCCNC(=N)N)C(=O)N[C@@H](CCCNC(=N)N)C(=O)N[C@@H](CO)C(N)=O [Peptide 9, C18-RRS-NH2] (Stearoyl-Arg-Arg-Ser-NH2)	512	512	128	94.31 ± 2.64	>512	256
32 (≈ 37.3 µM)	16 (≈ 18.6 µM)	16 (≈ 18.6 µM)	16 (≈ 18.6 µM)	CCCCCCCCCCCCCCCC(=O)N[C@@H](CCCNC(=N)N)C(=O)N[C@@H](CO[C@@H]1O[C@H](CO)[C@@H](O)[C@H](O)[C@H]1NC(C)=O)C(=O)N[C@@H](CCCNC(=N)N)C(N)=O [Peptide 14, C16-RS(GlcNAc)R-NH2] (Palmitoyl-Arg-Ser(βGlcNAc)-Arg-NH2)	–	–	–	73.34 ± 1.63	–	–
64 (≈ 74.6 µM)	16 (≈ 18.6 µM)	16 (≈ 18.6 µM)	8 (≈ 9.32 µM)	CCCCCCCCCCCCCCCC(=O)N[C@@H](CCCNC(=N)N)C(=O)N[C@@H](CCCNC(=N)N)C(=O)N[C@@H](CO[C@@H]1O[C@H](CO)[C@@H](O)[C@H](O)[C@H]1NC(C)=O)C(N)=O [Peptide 15, C16-RRS(GlcNAc)-NH2] (Palmitoyl-Arg-Arg-Ser(βGlcNAc)-NH2)	–	–	–	111.45 ± 11.65	–	–
32 (≈ 36.1 µM)	16 (≈ 18.1 µM)	4 (≈ 4.51 µM)	16 (≈ 18.1 µM)	CCCCCCCCCCCCCCCCCC(=O)N[C@@H](CO[C@@H]1O[C@H](CO)[C@@H](O)[C@H](O)[C@H]1NC(C)=O)C(=O)N[C@@H](CCCNC(=N)N)C(=O)N[C@@H](CCCNC(=N)N)C(N)=O [Peptide 16, C18-S(GlcNAc)RR-NH2] (Stearoyl-Ser(βGlcNAc)-Arg-Arg-NH2)	512	256	64	77.45 ± 1.13	512	256
32 (≈ 36.1 µM)	16 (≈ 18.1 µM)	4 (≈ 4.51 µM)	8 (≈ 9.03 µM)	CCCCCCCCCCCCCCCCCC(=O)N[C@@H](CCCNC(=N)N)C(=O)N[C@@H](CO[C@@H]1O[C@H](CO)[C@@H](O)[C@H](O)[C@H]1NC(C)=O)C(=O)N[C@@H](CCCNC(=N)N)C(N)=O [Peptide 17, C18-RS(GlcNAc)R-NH2] (Stearoyl-Arg-Ser(βGlcNAc)-Arg-NH2)	512	256	64	45.25 ± 0.59	>512	128
32 (≈ 36.1 µM)	16 (≈ 18.1 µM)	4 (≈ 4.51 µM)	8 (≈ 9.03 µM)	CCCCCCCCCCCCCCCCCC(=O)N[C@@H](CCCNC(=N)N)C(=O)N[C@@H](CCCNC(=N)N)C(=O)N[C@@H](CO[C@@H]1O[C@H](CO)[C@@H](O)[C@H](O)[C@H]1NC(C)=O)C(N)=O [Peptide 18, C18-RRS(GlcNAc)-NH2] (Stearoyl-Arg-Arg-Ser(βGlcNAc)-NH2)	256	128	128	48.04 ± 2.45	512	128
